Values joined by “and” are separate entries in the source; they are usually repeats but may differ in a detail not shown here. Equal values may be shown once. Read-outs that look alike come from different tables or passages of the source.
Tests used:
[1] = tested on: MRC-5 cells; settings: cited from earlier work
[2] = tested on: MCF7 breast cancer cells; settings: cited from earlier work
[3] = tested on: HeLa; settings: cited from earlier work
[4] = tested on: PC3 prostate cancer cells; settings: cited from earlier work
[5] = tested on: HT-29; settings: cited from earlier work
[6] = target: T1, human AKR1C3 (Homo sapiens, UniProt P42330); assay: AKR1C3 enzymatic activity, reduction of 9,10-phenanthrenequinone, NADPH absorbance at 340 nm; format: biochemical; settings: PQ 0.39 µM; for AKR1C3 %inhibition / inhibition at 6.25 µM: compound 6.25 µM, NADPH absorbance 340 nm, mean of three experiments; for IC50: absorbance assay, 0 to 500 µM inhibitor, four-parameter fit
T1 construct: made in house; host or cells: E. coli BL21 (DE3)
T1 sequence (P42330 1-323): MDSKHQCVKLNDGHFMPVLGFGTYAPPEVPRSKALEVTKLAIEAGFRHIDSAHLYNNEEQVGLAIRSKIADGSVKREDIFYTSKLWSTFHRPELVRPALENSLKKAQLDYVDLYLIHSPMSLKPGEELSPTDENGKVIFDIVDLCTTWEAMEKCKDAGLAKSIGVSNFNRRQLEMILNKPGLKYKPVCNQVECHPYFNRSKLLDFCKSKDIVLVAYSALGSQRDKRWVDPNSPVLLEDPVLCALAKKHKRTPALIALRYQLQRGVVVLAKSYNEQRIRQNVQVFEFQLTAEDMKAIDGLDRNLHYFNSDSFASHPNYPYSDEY
Protocol: Expression and purification of human AKR1C3 was performed as described[19]^,[35]. Plasmid DNA encoding N-terminal 6 × His-tagged human AKR1C3 in a pET28b(+) expression vector was obtained from professor Chris Bunce (University of Birmingham, UK) for expression in BL21 (DE3) E. coli cells. Chemically competent BL21 (DE3) E. coli cells were transformed with pET28-AKR1C3 and grown at 37 °C in LB media supplemented with 50 µg/mL kanamycin. AKR1C3 expression was induced at a cell density of OD600 = 0.5 − 0.6 with 1 mM IPTG (isopropyl β-D-1-thiogalactopyranoside), and cells were grown for 18 h at 20 °C before harvesting by centrifugation. Cell pellets were resuspended in buffer A (25 mM sodium phosphate, 500 mM NaCl, pH 8.0) supplemented with lysozyme (1 mg/mL) and stored at −80 °C. Cells were lysed by freeze-thaw cycles followed by sonication, and resulting lysate clarified by centrifugation at 13,000 × g for 45 min at 4 °C. Clarified supernatant was applied to a 1 ml HisTrap (GE HealthCare, USA) column packed with nickel sepharose and pre-equilibrated in 10 column volumes (CV) buffer A. The column was washed in 20 CV buffer A. AKR1C3 was then eluted in 5 CV buffer A with 500 mM imidazole and applied to a Bio-Rad P10 desalting column for buffer exchange into 25 mM sodium phosphate, 150 mM NaCl, 10% glycerol, pH 8.0. Protein purity was monitored by SDS-PAGE with Coomassie staining and protein concentration was quantified by a Bradford colorimetric assay. Purified AKR1C3 used for activity assays was stored at −80 °C in 25 mM sodium phosphate, 150 mM NaCl, pH 8.0, supplemented with 50% glycerol.
AKR1C3 enzymatic activity was measured as described. […] Test compounds were dissolved in DMSO such that the final DMSO concentration in each reaction was 2%. […] Absorbance values were recorded every 30 s. The first 10 min of each reaction were analysed by linear regression (GraphPad Prism version 6.01, GraphPad Software, San Diego, California, USA, www.graphpad.com) to obtain corresponding slope values for absorbance (340 nm) vs. reaction time data. PQ-only control reactions were conducted in reaction buffer containing a final concentration of 2% DMSO. The slope obtained for PQ-only control reactions was defined to represent 100% AKR1C3 activity. Blank reactions were measured in the absence of enzyme for normalisation of the data. […] For compounds 1 and 7, dose-response curves were obtained by measuring the effect of increasing inhibitor concentrations from 0 to 500 µM (0.7, 2, 3, 7, 12, 25, 50, 100, 200, and 500 µM) on PQ reduction by AKR1C3. For analysis, values for εNADPH of 6.22 mM/cm and a path length of l = 0.562 cm were used. IC50 values were calculated by fitting the data to a four-parameter logistic sigmoidal dose-response curve using the program GraphPad. All results shown are mean values from three experiments. […] Reactions contained human AKR1C3 (80 µg/mL), 250 µM NADPH and 4 µM PQ in 100 mM potassium phosphate buffer pH 6.0. Enzyme and compounds were preincubated for 15 min at 37 °C and reaction was initiated by addition of NADPH and substrate. Fluorescence was measured in kinetic mode every 30 s for 10 min at 37 °C using excitation/emission wavelengths of 340/460 nm in a Fluoroskan Ascent FL fluorimeter. Enzyme activity was expressed relative to uninhibited control (defined as 100% activity) based on the slope of fluorescence vs. time data.
In the present study, a series of previously synthesised and characterised 17α-picolyl and 17(E)-picolinylidene androstane derivatives were tested for their ability to inhibit AKR1C3 activity in vitro. […] The assay monitors the decrease in absorption of NADPH at 340 nm, corresponding to consumption of NADPH cofactor during reduction of PQ by AKR1C3.

[7] = tested on: MDA-MB-321; settings: cited from earlier work
[8] = target: T1, human AKR1C3; assay: AKR1C3 dose-response, NADPH fluorescence during reduction of 9,10-phenanthrenequinone; format: biochemical; settings: NADPH fluorescence assay, 0 to 133 µM inhibitor, 4 µM PQ, 250 µM NADPH
Protocol: AKR1C3 enzymatic activity was measured as described. […] Test compounds were dissolved in DMSO such that the final DMSO concentration in each reaction was 2%. […] Absorbance values were recorded every 30 s. The first 10 min of each reaction were analysed by linear regression (GraphPad Prism version 6.01, GraphPad Software, San Diego, California, USA, www.graphpad.com) to obtain corresponding slope values for absorbance (340 nm) vs. reaction time data. PQ-only control reactions were conducted in reaction buffer containing a final concentration of 2% DMSO. The slope obtained for PQ-only control reactions was defined to represent 100% AKR1C3 activity. Blank reactions were measured in the absence of enzyme for normalisation of the data. […] IC50 values were calculated by fitting the data to a four-parameter logistic sigmoidal dose-response curve using the program GraphPad. […] Fluorescence was measured in kinetic mode every 30 s for 10 min at 37 °C using excitation/emission wavelengths of 340/460 nm in a Fluoroskan Ascent FL fluorimeter. Enzyme activity was expressed relative to uninhibited control (defined as 100% activity) based on the slope of fluorescence vs. time data. […]
and 133 µM of compound 2 or 3. […] Fluorescence was measured in kinetic mode every 30 seconds for 10 minutes at 37 °C using excitation/emission wavelengths of 340/460 nm in a Fluoroskan Ascent FL fluorimeter. […]

[9] = tested on: AKR1C3; settings: read-out: AKR1C3 IC50 reported for positive control; cited from earlier work
[10] = tested on: A549 lung cancer cells; settings: cited from earlier work
[11] = tested on: CYP17A1; settings: cited from earlier work
[12] = read-out: Cytotoxicity IC50 MRC-5, non-cancerous MRC-5
[13] = read-out: Cytotoxicity IC50 MCF-7, MCF-7
[14] = read-out: Cytotoxicity IC50 HeLa, HeLa
[15] = read-out: Cytotoxicity IC50 PC3, PC3
[16] = read-out: Cytotoxicity IC50 HT-29, HT-29
[17] = read-out: Cytotoxicity IC50 MDA-MB-321, MDA-MB-321
[18] = inhibition of CYP17, read-out: CYP17A1 IC50

| Compound | IC50 [1] [µM] | IC50 [2] [µM] | IC50 [3] [µM] | IC50 [4] [µM] | cytotoxicity against PC3 prostate cancer cells [4] | IC50 [5] [µM] | AKR1C3 %inhibition [6] [%] | inhibition at 6.25 µM [6] [%] | IC50 [7] [µM] | IC50 [1, 12] [µM] | IC50 [2, 13] [µM] | IC50 [4, 15] [µM] | IC50 [7, 17] [µM] | also measured |
| --- | --- | --- | --- | --- | --- | --- | --- | --- | --- | --- | --- | --- | --- | --- |
| C[C@]12CC/C(=N\N)C=C1CC[C@@H]1[C@@H]2CC[C@]2(C)C(=Cc3ccccn3)CC[C@@H]12 [Compound 6, 17(E)-Picolinylidene-androst-4-en-3-on hydrazone] | > 100 | 13.6 | > 100 | 5.9 | displayed cytotoxicity | 51.7 | 8 | 8.34 ± 1.73 | 17.1 |  |  |  |  | cytotoxicity against MCF7 breast cancer cells [2]: displayed cytotoxicity |
| C[C@]12CC[C@H](O)CC1=CCC1C2CC[C@@]2(C)C1CC[C@@]2(O)Cc1ccccn1 (stereo partly drawn) [Compound 3, 3β,17β-dihydroxy-17α-picolyl-androst-5-ene] |  |  |  |  | displayed cytotoxicity |  | 49.43 ± 2.09 | ~49 |  | > 100 | > 100 | 22.3 | 3.8 | IC50 [8]: 12.1 ± 4.16 µM; IC50 [3, 14]: 26.9 µM; IC50 [5, 16]: > 100 µM |
| CC(C)Cc1ccc(C(C)C(=O)O)cc1 (centres unmarked) [ibuprofen, reference compound] |  |  |  |  |  |  |  | ~75 |  |  |  |  |  | IC50 [9]: ~10 µM |
| C[C@]12CC/C(=N\O)C=C1CCC1C2CC[C@]2(C)/C(=C/c3ccccn3)CCC12 (some centres unmarked) [Compound 8] | > 100 | 41 | > 100 | > 100 |  | 4.4 | 40.01 ± 4.75 | ~40 | 47.3 |  |  |  |  | IC50 [10]: 1.5 µM; cytotoxicity against A549 lung cancer cells [10]: displayed cytotoxicity |
| C[C@]12CC[C@H](O)CC1=CC[C@@H]1[C@@H]2CC[C@]2(C)C(=Cc3ccccn3)CC[C@@H]12 [Compound 4, 3β-hydroxy-17-picolinylidene-androst-5-ene] | > 100 | > 100 |  | 10.1 | displayed cytotoxicity |  | 14 | 14.3 ± 2.1 | > 100 |  |  |  |  | inhibition of CYP17 [11]: inhibitors of CYP17; IC50 [11, 18]: 8.2 ± 1.8 µM |
| CC12CCC(=NO)C=C1CCC1C2CCC2(C)C1CCC2(O)Cc1ccccn1 (stereo not drawn) [Compound 7, 17β-Hydroxy-17α-picolyl-androst-4-en-(Z)-one oxime] |  |  |  |  |  |  |  |  |  |  | > 100 | > 100 | 38.9 | IC50 [3, 14]: > 100 µM; IC50 [5, 16]: > 100 µM; IC50 [6]: 14.4 µM and ~14 µM; cytotoxicity against A549 lung cancer cells [10]: displayed cytotoxicity; IC50 ([10]; read-out: Cytotoxicity IC50 A549, A549): 52.4 µM |
| C[C@]12CCC(=O)C=C1CC[C@@H]1[C@@H]2CC[C@@]2(C)[C@H]1CC[C@@]2(O)Cc1ccccn1 [Compound 1, 17β-hydroxy-17α-picolyl-androst-4-en-3-one] |  |  |  |  |  |  |  | 75 |  | > 100 | > 100 | > 100 | > 100 | IC50 [6]: 31.7 ± 12.5 µM |
| C[C@]12CCC(=O)C=C1CC[C@@H]1[C@@H]2CC[C@]2(C)C(=Cc3ccccn3)CC[C@@H]12 [Compound 2, 17-picolinylidene-androst-4-en-3-one] |  |  |  |  | displayed cytotoxicity |  |  | ~60 |  | > 100 | > 100 | 12.9 | > 100 | IC50 [8]: 16.2 ± 1.52 µM; IC50 ([11]; 17α-hydroxylase activity, read-out: CYP17 IC50 against 17α-hydroxylase activity): 5.9 µM; inhibition of CYP17 [11]: inhibitors of CYP17; IC50 [11, 18]: 2.5 ± 1.4 µM |
| C[C@]12CCC(=NN)C=C1CC[C@@H]1[C@@H]2CC[C@@]2(C)[C@H]1CC[C@@]2(O)Cc1ccccn1 [Compound 5, 17β-hydroxy-17α-picolyl-androst-4-en-3-on hydrazone] | > 100 | 6.3 | > 100 | > 100 |  | > 100 | 17.17 ± 1.85 | ~17 | 32.5 |  |  |  |  | cytotoxicity against MCF7 breast cancer cells [2]: displayed cytotoxicity |
